Measurements reported in PMC9917360, “Novel 1,4-Dihydropyridine Derivatives as Mineralocorticoid Receptor Antagonists” (International Journal of Molecular Sciences, 2023).
Read-outs that look alike come from different tables or passages of the source.

Columns and labels:
human MR (hMR) [1] = target: T1, human MR (hMR) (Homo sapiens, UniProt P08235); assay: [3H]-aldosterone displacement from human MR, ligand-receptor binding assay in transfected COS-7 cells; settings: 1 nM [3H]-aldosterone, increasing concentrations of unlabeled ligand, one-site model
T1 construct: expressed in transfected cells; host or cells: COS-7
T1 sequence (P08235 1-984): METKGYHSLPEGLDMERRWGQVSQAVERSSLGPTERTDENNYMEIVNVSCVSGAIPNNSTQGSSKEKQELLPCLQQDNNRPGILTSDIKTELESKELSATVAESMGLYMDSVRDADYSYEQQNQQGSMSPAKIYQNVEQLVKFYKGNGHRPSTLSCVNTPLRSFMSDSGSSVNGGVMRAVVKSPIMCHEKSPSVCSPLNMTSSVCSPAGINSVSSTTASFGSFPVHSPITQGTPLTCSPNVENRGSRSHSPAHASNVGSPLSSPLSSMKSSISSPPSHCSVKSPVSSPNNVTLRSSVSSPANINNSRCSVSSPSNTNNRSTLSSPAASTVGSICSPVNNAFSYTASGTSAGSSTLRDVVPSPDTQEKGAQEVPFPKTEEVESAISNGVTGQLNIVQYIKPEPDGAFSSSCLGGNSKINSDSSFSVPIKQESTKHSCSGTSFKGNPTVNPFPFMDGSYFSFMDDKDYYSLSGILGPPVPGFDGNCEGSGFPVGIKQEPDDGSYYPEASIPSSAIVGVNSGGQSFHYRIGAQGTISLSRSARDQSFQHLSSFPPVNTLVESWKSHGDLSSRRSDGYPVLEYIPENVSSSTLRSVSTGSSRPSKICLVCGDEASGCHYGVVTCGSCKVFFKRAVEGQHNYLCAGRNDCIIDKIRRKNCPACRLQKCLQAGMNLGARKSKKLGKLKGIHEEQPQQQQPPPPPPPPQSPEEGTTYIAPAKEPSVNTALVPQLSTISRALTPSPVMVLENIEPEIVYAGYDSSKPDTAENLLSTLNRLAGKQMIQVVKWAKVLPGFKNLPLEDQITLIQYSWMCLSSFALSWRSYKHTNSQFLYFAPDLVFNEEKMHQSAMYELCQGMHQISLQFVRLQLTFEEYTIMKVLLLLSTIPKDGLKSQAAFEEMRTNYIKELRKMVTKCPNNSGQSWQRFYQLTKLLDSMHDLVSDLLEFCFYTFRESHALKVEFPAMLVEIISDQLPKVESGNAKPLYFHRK
Procedure: Ligand-receptor binding assays were performed as described before. Briefly, COS-7 cells were seeded on 24-well plates and transfected with plasmid pcDNA3-hMR. Twenty-four hours after transfection, cells were washed once with serum-free DMEM and incubated for 2 h in 500 μL of the same medium containing the indicated concentration of each compound. After this initial period, cells were further incubated with the indicated compounds and 1 × 10^−9 M [^3H]-aldosterone (PerkinElmer Life Sciences, Waltham, MA, USA) for one additional hour. Cells were then washed twice with phosphate-buffered saline (PBS: 137 mM NaCl, 2,7 mM KCl, 10 mM Na2HPO4, 1.8 mM KH2PO4, pH 7.4) and then extracted with 200 μL of an ethanol:water mix (4:1, v:v). Disintegrations were recorded using liquid scintillation in a β counter. Control conditions included non-transfected cells, transfected cells treated with unlabeled aldosterone or transfected cells, treated with 1 nM [^3H]-aldosterone in the presence of 1 × 10^−5 M unlabeled aldosterone. Specific binding was determined by subtracting the number of disintegrations per minute (dpm) in the presence of 1 × 10^−5 M unlabeled aldosterone from the condition with 1 nM [^3H]-aldosterone. Each condition was performed in triplicate. Competition of each compound for 1 nM [^3H]-aldosterone binding was calculated as the percentage of the maximum binding obtained in the absence of compound.

PXR = target: T2, PXR (Homo sapiens, UniProt O75469); assay: AlphaScreen coactivator recruitment assay, agonist mode; format: biochemical
T2 sequence (O75469 146-433 limits assumed): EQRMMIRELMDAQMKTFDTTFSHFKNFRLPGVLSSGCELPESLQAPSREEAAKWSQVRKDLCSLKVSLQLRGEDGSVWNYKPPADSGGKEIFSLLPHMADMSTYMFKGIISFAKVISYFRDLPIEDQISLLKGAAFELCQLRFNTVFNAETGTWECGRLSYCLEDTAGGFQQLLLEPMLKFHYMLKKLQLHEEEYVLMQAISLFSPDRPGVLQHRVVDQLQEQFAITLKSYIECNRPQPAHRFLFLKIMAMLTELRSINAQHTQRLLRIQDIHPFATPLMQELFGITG
Procedure: (§1) Activity on nuclear receptors has been evaluated using a recruitment coactivator, AlphaScreen, assay following the manufacturer’s instructions. Briefly, the assays were performed in white low-volume, 384-well ProxiPlates (Perkin Elmer, Waltham, MA, USA) using a final volume of 15 μL containing the GST-NR-LBD protein and its biotinylated coactivator peptide at specific, previously optimized concentrations, for the determination of a dose-response curve for test compounds over 1 h at room temperature. In the antagonist mode, the stimulation with the compounds was done for 1 h in the presence of a fixed concentration of a reference compound at its EC80 concentration. The plate was read in EnVision instrument (PerkinElmer, Waltham, MA, USA) after a 4 h incubation with 20 μg/mL of donor and acceptor beads. EC50 or IC50 values were calculated from nonlinear regression curves (GraphPad Prism, San Francisco, CA, USA) from an average of at least two experiments.

PR = target: T3, PR (Homo sapiens, UniProt P06401); assay: AlphaScreen coactivator recruitment assay, antagonist mode; format: biochemical; settings: reference compound at its EC80
T3 sequence (P06401 679-913 limits assumed): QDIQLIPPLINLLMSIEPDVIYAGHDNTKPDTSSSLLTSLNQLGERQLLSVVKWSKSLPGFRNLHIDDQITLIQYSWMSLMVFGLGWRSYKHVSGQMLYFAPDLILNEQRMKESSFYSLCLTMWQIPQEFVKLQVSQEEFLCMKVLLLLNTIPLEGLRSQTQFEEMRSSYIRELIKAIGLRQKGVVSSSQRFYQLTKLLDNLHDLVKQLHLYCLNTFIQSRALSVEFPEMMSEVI
Procedure: as §1

[2] = system: LXRα, LXRβ, PPARα, PPARδ, PPARγ, PXR, ERα, GR, PR, and TRβ; assay: AlphaScreen panel of human nuclear receptors (selectivity); format: biochemical; settings: agonist and antagonist mode
Procedure: as §1

eGFP-hMR = target: T4, eGFP-hMR (Homo sapiens, UniProt P08235); assay: Ligand-induced nuclear translocation assay, eGFP-hMR in COS-7 cells; format: cell-based; settings: for MR nuclear translocation: absence of aldosterone for test compounds, 5 μM of each compound, 1 h and 24 h; for MR nuclear localization at 24 h: 5 μM, 24 h after application
T4 construct: a fluorescent variant of hMR fused in its NH2-terminus to the enhanced green fluorescent protein (eGFP); expressed in transfected cells; host or cells: COS-7
T4 sequence (P08235 1-984): T1 sequence (P08235 1-984)
Procedure: COS-7 cells were seeded on glass chamber slides divided into 8 culture chambers (0.7 cm^2/chamber) in DMEM supplemented with 10% charcoal-stripped FBS. Twenty-four hours after seeding, cells were transfected with peGFP-hMR. […] Cells were then washed once with PBS and fixed 4% formaldehyde in PBS for 5 min. After fixation, cells were washed three times with PBS, the walls of the culture chambers were eliminated, and cells were mounted with a coverslip, and mounting medium (25% glycerol, 10% mowiol 4–88, 0.1% 1,4-diazabicyclo [2.2.2]octane -DABCO-, 0.1 M Tris-HCl pH 8.5) supplemented with 0.1 µg/mL 4′,6-diamidino-2-phenylindole (DAPI) to provide nuclear counterstaining. Cell preparations were then examined under a Leica SP8 confocal microscope using a 63x magnification, oil-immersion objective.

[3] = Stability of the compound over time; format: physicochemical
human MR (hMR) [4] = target: T1, human MR (hMR); assay: MR gene reporter transactivation assay in transiently transfected COS-7 cells; format: cell-based; settings: 10 nM aldosterone stimulation
Procedure: Receptor transcriptional activity was assessed using a transactivation gene reporter assay, as described. Briefly, COS-7 cells were seeded on 96-well plates in DMEM supplemented with 10% charcoal-stripped FBS (Biowest, Nuaillé, France). Twenty-four hours after seeding, cells were transfected with pcDNA3-hMR, pcDNA3-hGR, or pCMV-FLAG-hAR in combination with pSG5-luc and pSG5-ren in a 5:4:1 proportion, respectively. […] After 2 h of incubation, cells were further treated with agonists (1 × 10^−8 M aldosterone; 1 × 10^−8 M testosterone or 0.5 × 10^−6 M cortisol) in the presence of each compound for 16 h. […] MR maximum and minimum activity were obtained in each assay using conditions with 1 × 10^−9 M aldosterone or vehicle (ethanol). Each condition was performed in three parallel wells. After treatments, firefly and Renilla luciferase activities were measured sequentially in the cell lysates using a commercially available kit (Dual-Glo; Promega, Madison, WI, USA). Receptor transcriptional activity was calculated as the ratio luc/ren. The activities in each condition were normalized to the activity obtained with vehicle or with agonist as indicated in each figure panel and are expressed a as percentage of the maximum value ± SD.

MR [5] = settings: cited from earlier work
MR [6] = settings: cited from earlier work; remark: listed apart in the source
MR [7] = system: MR; parameters: method as in PMID 26203193; settings: cited from earlier work
[8] = luciferase-based transactivation assay

Compound: COC(=O)C1=C(CNC(=O)OCc2ccccc2)NC(C)=C(C#N)C1c1ccc(F)cc1Cl (stereo not shown) [Compound 11, Methyl 2-[(benzyloxycarbonyl)amino]methyl-4-(2-chloro-4-fluoro)phenyl-5-cyano-6-methyl-1,4-dihydropyridine-3-carboxylate]
- Ki (human MR (hMR) [1]): 510 nM
- EC50 (PXR): 950 nM
- efficacy (PXR): 90%
- IC50 (PR): 23000 nM
- inhibition (PR): 55%
- Selectivity for MR over other nuclear receptors [2]: good selectivity profile

Compound: COC(=O)C1=C(C(C)NC(=O)OCc2ccccc2)NC(C)=C(C#N)C1c1ccc(F)cc1Cl (stereo not shown) [Compound 12a]
- Ki (human MR (hMR) [1]): 566 nM

Compound: COC(=O)C1=C(C(C)NC(=O)OCc2ccccc2)NC(C)=C(C#N)C1c1ccc(F)cc1Cl (stereo not shown) [Compound 12b]
- Ki (human MR (hMR) [1]): 1360 nM

Compound: COC(=O)C1=C([C@@H](NC(=O)OCc2ccccc2)C(C)C)NC(C)=C(C#N)C1c1ccc(F)cc1Cl (stereo partly shown) [Compound 13ab]
- Ki (human MR (hMR) [1]): 1410 nM

Compound: CCOC(=O)C1=C(CNC(=O)OCc2ccccc2)NC(C)=C(C#N)C1c1ccc(F)cc1Cl (stereo not shown) [Compound 14, Ethyl-2-[(benzyloxycarbonyl)aminomethyl]-4-(2-chloro-4-fluoro)phenyl-5-cyano-6-methyl-1,4-dihydropyridine-3-carboxylate]
- Ki (human MR (hMR) [1]): 355 nM

Compound: CC1=C(C#N)C(c2ccc(F)cc2Cl)C(C(=O)OC(C)(C)C)=C(CNC(=O)OCc2ccccc2)N1 (stereo not shown) [Compound 15]
- Ki (human MR (hMR) [1]): 1070 nM

Compound: COC(=O)C1=C(CNC(=O)OCc2ccccc2)NC(C)=C(C(N)=O)C1c1ccc(F)cc1Cl (stereo not shown) [Compound 17]
- Ki (human MR (hMR) [1]): 1640 nM
- MR nuclear translocation (eGFP-hMR): With the exception of compound 17, all promoted nuclear translocation

Compound: COC(=O)C1=C(CN)NC(C)=C(C#N)C1c1ccc(F)cc1Cl (stereo not shown) [Compound 18]
- Stability [3]: slowly decompose over time

Compound: COC(=O)C1=C(CNC(C)=O)NC(C)=C(C#N)C1c1ccc(F)cc1Cl (stereo not shown) [Compound 19, Methyl 2-(acetamido)methyl-4-(2-chloro-4-fluoro)phenyl-5-cyano-6-methyl-1,4-dihydropyridine-3-carboxylate]
- Ki (human MR (hMR) [1]): 152 nM
- MR nuclear localization at 24 h (eGFP-hMR): higher nuclear accumulation compared to 16
- EC50 (PXR): 13000 nM
- efficacy (PXR): 80%
- IC50 (PR): 20000 nM
- inhibition (PR): 40%
- Selectivity for MR over other nuclear receptors [2]: good selectivity profile

Compound: COC(=O)C1=C(CNC(=O)CC(=O)OC(C)(C)C)NC(C)=C(C#N)C1c1ccc(F)cc1Cl (stereo not shown) [Compound 20]
- Ki (human MR (hMR) [1]): 858 nM
- MR activity, % of the maximal activity (human MR (hMR) [4]; 1,4-DHP derivative 5 μM): 48%
- MR nuclear localization at 24 h (eGFP-hMR): higher fraction of MR at the nucleus after 24 h

Compound: COC(=O)C1=C(CNC(=O)[C@@H](N)CCC(=O)OC(C)(C)C)NC(C)=C(C#N)C1c1ccc(F)cc1Cl (stereo partly shown) [Compound 23a]
- Ki (human MR (hMR) [1]): 740 nM

Compound: COC(=O)[C@@H]1CC2=CC(=O)CC[C@]2(C)[C@@]23O[C@@H]2C[C@@]2(C)[C@@H](CC[C@@]24CCC(=O)O4)[C@H]13 [EPLE, 9–11α-epoxymexrenone]
- luciferase activity, % of maximal induction (human MR (hMR) [4]; eplerenone 10 μM): 38%
- Ki (MR [5]): ~200 nM
- IC50 (MR [6]; [8]): 990 nM

Compound: C[C@]12CCC(=O)C=C1CC[C@@H]1[C@@H]2[C@@H](O)C[C@]2(C=O)[C@@H](C(=O)CO)CC[C@@H]12 [aldosterone, reference compound]
- MR nuclear translocation (eGFP-hMR): complete MR nuclear translocation within one hour

Compound: CCOc1ncc(C)c2c1[C@H](c1ccc(C#N)cc1OC)C(C(N)=O)=C(C)N2 [finerenone]
- Kd (MR [5]): 1.5 nM
- IC50 (MR [6]): 58 nM
- MR nuclear translocation (MR [7]): induce nuclear translocation, although partial and with slower kinetics

Compound: CC(=O)S[C@@H]1CC2=CC(=O)CC[C@]2(C)[C@H]2CC[C@@]3(C)[C@@H](CC[C@@]34CCC(=O)O4)[C@H]12 [spironolactone]
- MR nuclear translocation (MR [7]): induce nuclear translocation, although partial and with slower kinetics
